Results taken from ChEMBL document CHEMBL5576039, “Novel naphthoquinone-1H-1,2,3-triazole hybrids: Design, synthesis and evaluation as inductors of ROS-mediated apoptosis in the MCF-7 cells” (Bioorg Med Chem, 2024).
pIC50: −log10 of the molar value. Calls of active or inactive are those of the source. The rule behind the calls is not given here.

Legend:
[1] = tested on: MCF7; assay: Cytotoxicity against human MCF7 cells assessed as reduction in cell viability incubated for 24 hrs by MTT assay; format: functional, cell-based; details: MCF7, 24 h
[2] = tested on: MCF7; assay: Cytotoxicity against human MCF7 cells assessed as reduction in cell viability at 50 uM incubated for 24 hrs by MTT assay; format: functional, cell-based
[3] = tested on: MCF7; assay: Cytotoxicity against human MCF7 cells assessed as reduction in cell viability at 12 uM incubated for 24 hrs by MTT assay; format: functional, cell-based
[4] = tested on: MCF7; assay: Cytotoxicity against human MCF7 cells assessed as reduction in cell viability at 6 uM incubated for 24 hrs by MTT assay; format: functional, cell-based
[5] = tested on: MCF-10A; assay: Cytotoxicity against human MCF-10A cells assessed as reduction in cell viability incubated for 24 hrs by MTT assay; format: toxicity, cell-based
[6] = tested on: MDA-MB-231; assay: Cytotoxicity against human MDA-MB-231 cells assessed as reduction in cell viability incubated for 24 hrs by MTT assay; format: functional, cell-based; details: MDA-MB-231, 24 h
[7] = tested on: MCF7; assay: Induction of apoptotic cell death in human MCF7 cells incubated for 12 to 24 hrs by AnnexinV/7-AAD staining based flow cytometry; format: functional; details: dose 6-12 µM, time 12-24 hrs
[8] = tested on: MCF7; assay: Induction of apoptotic cell death in human MCF7 cells at 6 to 12 uM by AnnexinV/7-AAD staining based flow cytometry; format: functional; details: dose 6-12 µM, time 12-24 hrs, TDE = time-dependent effect
[9] = tested on: MCF7; assay: Cytotoxicity against human MCF7 cells assessed as reduction in cell viability incubated for 2 to 24 hrs by MTT assay; format: functional, cell-based; details: dose 6-12 µM, time 2-24 hrs
[10] = tested on: MCF7; assay: Cytotoxicity against human MCF7 cells assessed as reduction in cell viability at 6 to 12 uM by MTT assay; format: functional, cell-based; details: dose 6-12 µM, time 2-24 hrs, TDE = time-dependent effect
[11] = tested on: MCF7; assay: Induction of cell death in human MCF7 cells assessed as proportion of live cells at 6 uM incubated for 12 hrs by AnnexinV/7-AAD staining based flow cytometry; format: functional
[12] = tested on: MCF7; assay: Induction of cell death in human MCF7 cells assessed as proportion of live cells at 12 uM incubated for 12 hrs by AnnexinV/7-AAD staining based flow cytometry; format: functional
[13] = tested on: MCF7; assay: Induction of cell death in human MCF7 cells assessed as reduction in number of live cells at 12 uM incubated for 4 hrs by AnnexinV/7-AAD staining based flow cytometry; format: functional
[14] = tested on: MDA-MB-231; assay: Induction of apoptotic cell death in human MDA-MB-231 cells assessed as increase in AnnexinV-positive cells at 3 to 12 uM incubated for 2 hrs by AnnexinV/7-AAD staining based flow cytometry; format: functional; details: dose 3-12 µM
[15] = tested on: MCF-10A; assay: Induction of apoptotic cell death in human MCF-10A cells assessed as increase in AnnexinV-positive cells at 12 uM incubated for 2 hrs by AnnexinV/7-AAD staining based flow cytometry; format: toxicity
[16] = tested on: MCF7; assay: Induction of apoptotic cell death in human MCF7 cells assessed as increase in AnnexinV-positive cells at 3 uM incubated for 2 hrs by AnnexinV/7-AAD staining based flow cytometry; format: functional
[17] = tested on: MCF7; assay: Increase in ROS production in human MCF7 cells assessed as increase in ROS-positive cells at 6 to 12 uM incubated for 2 hrs by DCFDA/7-AAD staining based flow cytometry; format: functional, cell-based; details: dose 6-12 µM
[18] = tested on: MCF7; assay: Increase in ROS production in human MCF7 cells assessed as increase in ROS-positive cells at 6 to 12 uM incubated for 4 hrs by DCFDA/7-AAD staining based flow cytometry; format: functional, cell-based; details: dose 6-12 µM
[19] = tested on: MDA-MB-231; assay: Increase in ROS production in human MDA-MB-231 cells assessed as increase in ROS-positive cells at 6 to 12 uM incubated for 2 to 24 hrs by DCFDA/7-AAD staining based flow cytometry; format: functional, cell-based; details: dose 6-12 µM, time 2-24 hrs
[20] = tested on: MCF7; assay: Activation of AMPK in human MCF7 cells assessed as increase in AMPK phosphorylation at Thr172 residue at 12 uM incubated for 2 hrs by western blot analysis; format: cell-based; details: filed as activator
[21] = tested on: MCF7; assay: Activation of AMPK in human MCF7 cells assessed as increase in ACC phosphorylation at Ser79 residue at 12 uM incubated for 2 hrs by western blot analysis; format: cell-based; details: filed as activator
[22] = tested on: MDA-MB-231; assay: Activation of AMPK in human MDA-MB-231 cells assessed as increase in AMPK phosphorylation at Thr172 residue at 12 uM incubated for 2 hrs by western blot analysis; format: cell-based; details: filed as activator
[23] = tested on: MDA-MB-231; assay: Activation of AMPK in human MDA-MB-231 cells assessed as increase in ACC phosphorylation at Ser79 residue at 12 uM incubated for 2 hrs by western blot analysis; format: cell-based; details: filed as activator
[24] = tested on: MCF7; assay: Activation of AMPK in human MCF7 cells assessed as reduction in mTOR phosphorylation at Ser2448 residue at 6 to 12 uM incubated for 2 hrs by western blot analysis; format: cell-based; details: filed as activator, dose 6-12 µM
[25] = tested on: MDA-MB-231; assay: Activation of AMPK in human MDA-MB-231 cells assessed as reduction in p70S6K phosphorylation at Thr421/Ser424 residue at 6 to 12 uM incubated for 2 hrs by western blot analysis; format: cell-based; details: filed as activator, dose 6-12 µM
[26] = tested on: MCF7; assay: Activation of AMPK in human MCF7 cells assessed as reduction in S6 phosphorylation at Ser235/236 residue at 6 to 12 uM incubated for 2 hrs by western blot analysis; format: cell-based; details: filed as activator, dose 6-12 µM
[27] = tested on: MDA-MB-231; assay: Activation of AMPK in human MDA-MB-231 cells assessed as reduction in S6 phosphorylation at Ser235/236 residue at 6 to 12 uM incubated for 2 hrs by western blot analysis; format: cell-based; details: filed as activator, dose 6-12 µM
[28] = tested on: MCF-10A; assay: Induction of apoptotic cell death in human MCF-10A cells assessed as increase in AnnexinV-positive cells at 1 uM incubated for 2 hrs by AnnexinV/7-AAD staining based flow cytometry; format: toxicity
[29] = tested on: MCF7; assay: Induction of apoptotic cell death in human MCF7 cells assessed as increase in AnnexinV-positive cells at 1 uM incubated for 2 hrs by AnnexinV/7-AAD staining based flow cytometry; format: functional
[30] = tested on: MDA-MB-231; assay: Induction of apoptotic cell death in human MDA-MB-231 cells assessed as increase in AnnexinV-positive cells at 1 uM incubated for 2 hrs by AnnexinV/7-AAD staining based flow cytometry; format: functional

Structure (SMILES): CC(C)(C)c1ccc(-n2cc(CNC3=CC(=O)c4ccccc4C3=O)nn2)cc1
- pIC50 [1]: 4.67

Structure (SMILES): CC1=C(C(c2ccccc2)n2cc(CNC3=CC(=O)c4ccccc4C3=O)nn2)C(=O)c2ccccc2C1=O (stereo unspecified)
- Activity [2]: inactive

Structure (SMILES): CC(C)=CCC1=C(OCc2cn(C(C)C3=C(C)C(=O)c4ccccc4C3=O)nn2)C(=O)c2ccccc2C1=O (stereo unspecified)
- Activity [2]: inactive

Structure (SMILES): CC(C)=CC1=C(OCc2cn(CC3=C(C)C(=O)c4ccccc4C3=O)nn2)C(=O)c2ccccc2C1=O
- Activity [3]: Active
- Activity [4]: Active
- Activity [5]: Non-Toxic
- pIC50 [1]: 5.36
- pIC50 [6]: 4.95
- Activity [7]: Dose-Dependent Effect
- Activity [8]: Tde
- Activity [9]: Dose-Dependent Effect
- Activity [10]: Tde
- Activity [11]: <70%
- Activity [12]: <90%
- Activity [13]: Active
- Activity [14]: inactive
- Activity [15]: Non-Toxic
- Activity [16]: Active
- Activity [17]: Active
- Activity [18]: inactive
- Activity [19]: inactive
- Activity [20]: Active
- Activity [21]: Active
- Activity [22]: Active
- Activity [23]: Active
- Activity [24]: Active
- Activity [25]: Active
- Activity [26]: Active
- Activity [27]: Active

Structure (SMILES): CC(C)=CC1=C(OCc2cn(C(C3=C(C)C(=O)c4ccccc4C3=O)c3ccc(Cl)cc3)nn2)C(=O)c2ccccc2C1=O (stereo unspecified)
- Activity [2]: inactive

Structure (SMILES): O=C1C=C(NCc2cn(-c3ccc(C(F)(F)F)cc3)nn2)C(=O)c2ccccc21
- pIC50 [1]: 4.98

Structure (SMILES): CC1=C(C(c2ccc(Br)cc2)n2cc(CNC3=CC(=O)c4ccccc4C3=O)nn2)C(=O)c2ccccc2C1=O (stereo unspecified)
- Activity [2]: inactive

Structure (SMILES): COc1cccc2c1C(=O)c1c(O)c3c(c(O)c1C2=O)C[C@@](O)(C(=O)CO)C[C@@H]3O[C@H]1C[C@H](N)[C@H](O)[C@H](C)O1 [DOXORUBICIN]
- Activity [28]: Toxic
- Activity [29]: inactive
- Activity [30]: Active

Structure (SMILES): CCc1ccc(-n2cc(CCNC3=C(C)C(=O)c4ccccc4C3=O)nn2)cc1
- pIC50 [1]: 5.06

Structure (SMILES): CC(C)=CC1=C(OCc2cn(C(C)C3=C(C)C(=O)c4ccccc4C3=O)nn2)C(=O)c2ccccc2C1=O (stereo unspecified)
- Activity [3]: Active
- Activity [4]: Active
- Activity [5]: Non-Toxic
- pIC50 [1]: 5.37
- pIC50 [6]: 5.04
- Activity [7]: Dose-Dependent Effect
- Activity [8]: Tde
- Activity [9]: Dose-Dependent Effect
- Activity [10]: Tde
- Activity [11]: <75%
- Activity [12]: <95%
- Activity [13]: Active
- Activity [14]: inactive
- Activity [15]: Toxic
- Activity [17]: Active
- Activity [19]: inactive
- Activity [20]: Active
- Activity [21]: Active
- Activity [22]: Active
- Activity [23]: Active
- Activity [24]: Active
- Activity [25]: Active
- Activity [26]: Active
- Activity [27]: Active

Structure (SMILES): CC(C)=CC1=C(OCc2cn(C(C3=C(C)C(=O)c4ccccc4C3=O)c3ccccc3)nn2)C(=O)c2ccccc2C1=O (stereo unspecified)
- Activity [3]: Active

Structure (SMILES): CC1=C(C(c2ccc(Cl)cc2)n2cc(CNC3=CC(=O)c4ccccc4C3=O)nn2)C(=O)c2ccccc2C1=O (stereo unspecified)
- Activity [2]: inactive

Structure (SMILES): CC(C)=CC1=C(OCc2cn(C(C3=C(C)C(=O)c4ccccc4C3=O)c3ccc(Br)cc3)nn2)C(=O)c2ccccc2C1=O (stereo unspecified)
- Activity [2]: inactive

Structure (SMILES): CC(C)=CCC1=C(OCc2cn(C(C3=C(C)C(=O)c4ccccc4C3=O)c3ccc(Br)cc3)nn2)C(=O)c2ccccc2C1=O (stereo unspecified)
- Activity [2]: inactive

Structure (SMILES): CC(C)=CCC1=C(OCc2cn(C(C3=C(C)C(=O)c4ccccc4C3=O)c3ccc(Cl)cc3)nn2)C(=O)c2ccccc2C1=O (stereo unspecified)
- Activity [2]: inactive

Structure (SMILES): CC1=C(C(c2ccc(F)cc2)n2cc(CNC3=CC(=O)c4ccccc4C3=O)nn2)C(=O)c2ccccc2C1=O (stereo unspecified)
- Activity [2]: inactive

Structure (SMILES): CC(C)=CCC1=C(OCc2cn(C(C3=C(C)C(=O)c4ccccc4C3=O)c3ccc(F)cc3)nn2)C(=O)c2ccccc2C1=O (stereo unspecified)
- Activity [2]: inactive

Structure (SMILES): CC(C)=CCC1=C(OCc2cn(C(C3=C(C)C(=O)c4ccccc4C3=O)c3ccccc3)nn2)C(=O)c2ccccc2C1=O (stereo unspecified)
- Activity [3]: Active

Structure (SMILES): CC1=C(Cn2cc(CNC3=CC(=O)c4ccccc4C3=O)nn2)C(=O)c2ccccc2C1=O
- Activity [3]: Active

Structure (SMILES): CC1=C(C(C)n2cc(CNC3=CC(=O)c4ccccc4C3=O)nn2)C(=O)c2ccccc2C1=O (stereo unspecified)
- Activity [2]: inactive

Structure (SMILES): CC(C)=CCC1=C(OCc2cn(CC3=C(C)C(=O)c4ccccc4C3=O)nn2)C(=O)c2ccccc2C1=O
- Activity [2]: inactive
